Data on 102 molecules can be found in PubChem BioAssay AID608 (Sanford-Burnham Center for Chemical Genomics, 2007).

Calls of active or inactive are those of the source. No rule for the calls is given here.

The target in the experiment is Peptidyl-prolyl cis-trans isomerase FKBP1A (Homo sapiens) (UniProt P62942). Nature of the experiment: small-molecule binding to FKBP12 – biophysical, NMR detection (AID 608). The settings on record: purified FKBP12.
Peptidyl-prolyl cis-trans isomerase FKBP1A (Homo sapiens), sequence (P62942 whole entry, looked up): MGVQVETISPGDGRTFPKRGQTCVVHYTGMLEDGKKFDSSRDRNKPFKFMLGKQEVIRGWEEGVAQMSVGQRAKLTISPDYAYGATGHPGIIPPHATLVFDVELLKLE
In general, Kd refers to the concentration at which binding is half-saturated. `NC(=O)C1CCN(S(=O)(=O)c2ccccc2)CC1`: the Kd was > 4 mM (inactive).

Take `NC(=O)c1cccnc1Oc1ccccc1`: the Kd is > 4 mM (inactive).

In the case of `C[C@@H]1O[C@@H](O[C@H]2[C@@H](Oc3cc(O)c4c(c3)O[C@H](c3ccc(O)cc3)CC4=O)O[C@H](CO)[C@@H](O)[C@@H]2O)[C@H](O)[C@H](O)[C@H]1O`, the Kd was > 4 mM (inactive).

Turning to `Cc1cc(C)n(-c2nc(C)nc(N)n2)n1`, the Kd is > 4 mM (inactive).

As to `COC(=O)CC1SC(=O)NC1=O` (configuration not stated), the Kd is > 4 mM (inactive).

With `S=c1nc(Cc2ccccc2)[nH][nH]1`, the Kd is > 4 mM (inactive).

Consider `Cc1cc(C)n2c(SCc3c(C)noc3C)nnc2n1`, for which the Kd was > 4 mM (inactive).

In the case of `CC(=O)O[C@H]1CC[C@@]2(C)C(CC[C@]3(C)C2CC=C2C4CC(C)(C)CC[C@]4(C)CC[C@]23C)C1(C)C` (some centres not stated), the Kd was > 4 mM (inactive).

`O=C(NCc1ccccc1Br)c1ccco1`: the Kd is > 4 mM (inactive).

Turning to `OCCNC(=S)Nc1ccccc1`, the Kd is > 4 mM (inactive).

For `OCc1ccc2nonc2c1`, the Kd was > 4 mM (inactive).

For the molecule `COc1ccccc1NC(=O)C1CCCCC1`, the Kd was > 4 mM (inactive).

With `O=C(O)C(Cc1cnc[nH]1)N1C(=O)c2ccccc2C1=O` (configuration not stated), the Kd was > 4 mM (inactive).

For `COc1ccc(CN2CCC(O)CC2)c(O)c1`, the Kd is > 4 mM (inactive).

Regarding `Nc1nc2ncc(CNc3ccc(C(=O)N[C@@H](CCC(=O)O)C(=O)O)cc3)nc2c(=O)[nH]1`, the Kd is > 4 mM (inactive).

Take `Cc1cc(=O)oc2c1c(C)nn2CN1CCN(C)CC1`: the Kd is > 4 mM (inactive).

Consider `Cc1ccc(N2C(=O)CC(Sc3ncn[nH]3)C2=O)cc1` (configuration not stated), for which the Kd was > 4 mM (inactive).

Consider `COc1ccc(-c2cc(=O)c3c(OC)c(OC)c(OC)c(OC)c3o2)cc1OC`, for which the Kd is > 4 mM (inactive).

As for `Nc1ncnc(NCCOCCO)c1[N+](=O)[O-]`, the Kd is > 4 mM (inactive).

With `CC[C@@]1(O)C(=O)OCc2c1cc1n(c2=O)Cc2cc3ccccc3nc2-1`, the Kd is > 4 mM (inactive).

For `CN(C)C(=S)Nc1nc2ccccc2s1`, the dissociation constant (Kd) was 0.152 mM.

Turning to `O=C(Nn1cnnc1)c1cccc(C(F)(F)F)c1`, the Kd was > 4 mM (inactive).

In the case of `N#Cc1cc2c(nc1SCc1ccncc1)CCC2`, the Kd was > 4 mM (inactive).

Regarding `CC1(C)Oc2ccc(N)cc2O1`, the Kd is > 4 mM (inactive).

In the case of `O=c1cc(O)n(-c2ccc(F)cc2)c(=S)[nH]1`, the Kd is > 4 mM (inactive).

For `OCCCc1nc2ccccc2[nH]1`, the Kd was > 4 mM (inactive).

In the case of `CN(C)N1C(=O)C2C3C=CC(O3)C2C1=O` (configuration not stated), the Kd was > 4 mM (inactive).

For the molecule `O=c1n(-c2ccccc2)c(=O)n2n1CCCC2`, the Kd is > 4 mM (inactive).

In the case of `CC(=O)Nc1ccc(NC2SC(=O)NC2=O)cc1` (configuration not stated), the Kd was > 4 mM (inactive).

Take `Cn1c(O)c(/C=C2\C=CC=N2)c(=O)[nH]c1=O`: the Kd was > 4 mM (inactive).

With `Cc1c(CO)cnn1-c1ccc(F)cc1`, the Kd is > 4 mM (inactive).

With `c1ccc(-n2cnnc2)nc1`, the Kd is > 4 mM (inactive).

`O=C(CN1C(=O)CCC1=O)c1ccccc1`: the Kd is > 4 mM (inactive).

For the molecule `O=C(COc1ccc(Cl)cc1Cl)N1CCOCC1`, the Kd result was “inactive”.

As to `Nn1cnn2c(SCc3ccccc3)nnc12`, the Kd is > 4 mM (inactive).

On to `Nc1nc2ccc(C(=O)O)cc2s1`, for which the Kd was > 4 mM (inactive).

As for `CC1(C)C=Cc2c(cc3occ(-c4ccc5c(c4)OCO5)c(=O)c3c2O)O1`, the Kd was > 4 mM (inactive).

For `CC(C)=CCc1c2c(c3occ(-c4ccc(O)c(O)c4)c(=O)c3c1O)C=CC(C)(C)O2`, the Kd is > 4 mM (inactive).

Consider `O=c1[nH]c(O)c(C=NC2CC2)c(=O)[nH]1`, for which the Kd was > 4 mM (inactive).

On to `O=C(/C=C(\O)c1ccccc1)c1ccccc1O`, for which the Kd is > 4 mM (inactive).

`Cc1ccc(NC(=O)N2CCC(C(N)=O)CC2)cc1`: the Kd was > 4 mM (inactive).

Consider `CCN1C(=O)c2cccc3c(S(N)(=O)=O)ccc1c23`, for which the Kd was > 4 mM (inactive).

As to `O=P1(O)c2ccccc2Nc2ccccc21`, the Kd was > 4 mM (inactive).

`Cn1ncc(CO)c1-c1ccccc1`: the Kd was > 4 mM (inactive).

With `Cc1ccc2nc(NC(=O)CN3CCOCC3)sc2c1`, the Kd was > 4 mM (inactive).

As to `O=C(c1ccco1)N1CCN(c2ccc(Cl)cc2)CC1`, the Kd is > 4 mM (inactive).

Turning to `O=C(NCc1cccs1)c1nn2cccnc2c1Cl`, the Kd is > 4 mM (inactive).

On to `CC(=O)OCC(OC(C)=O)C(OC(C)=O)C(OC(C)=O)C(OC(C)=O)C(COC(C)=O)OC(C)=O` (configuration not stated), for which the Kd is > 4 mM (inactive).

On to `CC(=O)O[C@H]1C[C@@H](OC(C)=O)C(C)(C)C2C[C@@H](OC(C)=O)[C@]3(C)C([C@H](OC(C)=O)C[C@@]4(C)[C@H](c5ccoc5)OC(=O)[C@H]5O[C@]543)[C@]21C` (some centres not stated), for which the Kd is > 4 mM (inactive).

As to `O=C(NC12CC3CC(CC(C3)C1)C2)c1cnccn1`, the Kd was > 4 mM (inactive).

For the molecule `COc1c(O)cc(O)cc1O`, the Kd is > 4 mM (inactive).

`OCc1cc(-c2cccs2)on1`: the Kd is > 4 mM (inactive).

On to `c1ccc(-n2nnnc2Oc2cccc3cccnc23)cc1`, for which the Kd was > 4 mM (inactive).

Regarding `COc1cc([C@H]2Oc3cc([C@H]4Oc5cc(O)cc(O)c5C(=O)[C@@H]4O)ccc3O[C@@H]2CO)ccc1O`, the Kd is > 4 mM (inactive).

On to `Cc1nc2ccccc2c(=O)n1CCCn1ccnc1`, for which the Kd was > 4 mM (inactive).

As to `O=C(Nc1ccccc1F)c1ccncc1`, the Kd is > 4 mM (inactive).

As to `Oc1ccc2nonc2c1`, the Kd is > 4 mM (inactive).

`Cc1nc(NC2=NCCC(=O)N2)nc2ccccc12`: the Kd was > 4 mM (inactive).

As to `NC(=O)CSc1nc2ccccc2[nH]1`, the Kd was > 4 mM (inactive).

In the case of `Nc1ccc(OCc2ccccc2)cc1`, the Kd was > 4 mM (inactive).

In the case of `O=S1(=O)CCC(NC(=S)Nc2ccccc2)C1` (configuration not stated), the Kd is > 4 mM (inactive).

Take `C=C[C@@]1(C)CC(=O)[C@@]2(O)[C@](C)(O1)[C@@H](OC(C)=O)[C@@H](O)C1C(C)(C)CC[C@H](O)[C@@]12C` (some centres not stated): the Kd is > 4 mM (inactive).

Take `O=C(c1cccs1)N1CCCc2ccccc21`: the Kd was > 4 mM (inactive).

On to `O=c1c2ccccc2nc2n1CCC2O` (configuration not stated), for which the Kd is > 4 mM (inactive).

As to `CSc1ncc(CO)n1Cc1ccccc1`, the Kd was > 4 mM (inactive).

Turning to `O=c1[nH]c2sc3c(c2c2ncnn12)CCCC3`, the Kd was > 4 mM (inactive).

Take `O=C1CN(C(=O)c2ccccc2)c2ccccc2N1`: the Kd was > 4 mM (inactive).

In the case of `CNC(=O)Nc1cccc(C(F)(F)F)c1`, the Kd is > 4 mM (inactive).

Consider `CC(C)/C(O)=C1/C(=O)O[C@@H](c2ccoc2)[C@]2(C)C(O)[C@@H](O)[C@@]34OC5(C)OC67CC(C)(C(O)[C@]6(O)[C@@H](O)[C@]3(O5)C12)[C@H](CC(=O)O)[C@]74C` (some centres not stated), for which the Kd is > 4 mM (inactive).

For the molecule `Cc1nnc2ccc(N3CCCC3)nn12`, the Kd is > 4 mM (inactive).

For `c1ccc(Cc2nnc3sc(-c4ccncc4)nn23)cc1`, the Kd is > 4 mM (inactive).

In the case of `NS(=O)(=O)c1ccc(N=Cc2ccc[nH]2)cc1`, the Kd was > 4 mM (inactive).

Regarding `O=C(Nc1nncs1)c1c(F)cccc1F`, the Kd is > 4 mM (inactive).

With `Cc1ccc(-n2cnnn2)c2cccnc12`, the Kd was > 4 mM (inactive).

`Cc1cc(=O)cc(C)n1-c1ccccc1N`: the Kd was > 4 mM (inactive).

On to `Cn1cnc2cc(NC(=O)c3ccco3)ccc21`, for which the Kd was > 4 mM (inactive).

On to `O=C(/C=C1\SC(=O)NC1=O)NCc1ccccc1`, for which the Kd was > 4 mM (inactive).

In the case of `Cc1nc(N)sc1C(=O)Nc1nccs1`, the Kd was > 4 mM (inactive).

Turning to `Cc1cc(C)n(CCCC(=O)O)n1`, the Kd is > 4 mM (inactive).

For the molecule `S=C=NCc1ccccc1`, the Kd is > 4 mM (inactive).

`COCC(=O)Nc1cccc2ccccc12`: the Kd is > 4 mM (inactive).

For `CC(C)C(C)/C=C/C(C)[C@H]1CCC2C3=CCC4CC(=O)CC[C@]4(C)C3CC[C@@]21C` (some centres not stated), the Kd is > 4 mM (inactive).

For the molecule `COCc1cc(C)nc2sc(C(=O)OC)c(N)c12`, the Kd is > 4 mM (inactive).

As for `Cc1cc(Cl)ccc1NC(=O)C(N)=O`, the Kd is > 4 mM (inactive).

For `O=C1CSC(=S)N1Cc1cccnc1`, the Kd was > 4 mM (inactive).

On to `Cc1nnc(SCc2ccccc2)[nH]c1=O`, for which the Kd was > 4 mM (inactive).

For `COc1ccc(N2CC(=O)NC2=O)cc1`, the Kd was > 4 mM (inactive).

Take `c1ccc2nc3c(nc2c1)CCc1nonc1-3`: the Kd was > 4 mM (inactive).

Turning to `O=C(NC1=NCCS1)c1ccc(Cl)s1`, the Kd is > 4 mM (inactive).

For the molecule `Cc1ccc(S(=O)(=O)CCc2ccccn2)cc1`, the Kd was > 4 mM (inactive).

As for `O=C(c1ccco1)N1CCn2c1nc1ccccc12`, the Kd is > 4 mM (inactive).

Turning to `O=C(c1sc2cc(Cl)cc(Cl)c2c1Cl)N1CCOCC1`, the Kd result was “inactive”.

Take `CC(=O)NC12CC3CC(CC(O)(C3)C1)C2`: the Kd is > 4 mM (inactive).

`C[n+]1cccc(C(=O)[O-])c1`: the Kd was > 4 mM (inactive).

Turning to `O=C(O)CC(O)c1nc2ccccc2[nH]1` (configuration not stated), the Kd is > 4 mM (inactive).

Take `c1cncc(Cn2cccc2)c1`: the Kd was > 4 mM (inactive).

`CN1CCN(c2ccc(N)cc2)CC1`: the Kd was > 4 mM (inactive).

With `S=C(Nc1ccc2nccnc2c1)N1CCOCC1`, the Kd is > 4 mM (inactive).

Consider `CC(=O)N1CCN(c2ccc(O)cc2)CC1`, for which the Kd was > 4 mM (inactive).

Consider `O=C(CSc1ccccc1)N1CCOCC1`, for which the Kd is 0.0235 mM.

For `O=C1CCC(=O)N1c1cccnc1`, the Kd was > 4 mM (inactive).

In the case of `COc1c2ccccc2nc2occc12`, the Kd is > 4 mM (inactive).
